Literature values, collected in US12194111B2, “Alpha emitter compositions and methods” (Nant Holdings IP, LLC, priority 2018, dated 2025).

Tested on: relapsed or refractory soft tissue sarcoma
Conditions: clinical trial; treatment of relapsed or refractory soft tissue sarcoma

**Q.** With `COc1cccc2c1C(=O)c1c(O)c3c(c(O)c1C2=O)C[C@@](O)(/C(CO)=N/NC(=O)CCCCCN1C(=O)C=CC1=O)C[C@@H]3O[C@H]1C[C@H](N)[C@H](O)[C@H](C)O1` [aldoxorubicin] as the molecule, how does the progression free disease read?
**A.** The progression free disease was “did not show a significant increase in progression free disease”.
